Here are results for 1 molecule from publication PMC4005666 (2014).

The subject of test [1] is A1nC (RNA, riboswitch) GGACUCGGGGUGCCCUUCUGCGUGAAGGCUGAGAAAUACCCGUAUCACCUGAUCUGGAUAAUGCCAGCGUAGGGCAGUUC
The test can be described thus: native gel electrophoresis (mobility increase). To be noted: 1 mM Mg2+; 25 mM Tris, 192 mM glycine pH 8.3; 100 µM TPP.

In test [2] the test system is A2bU (RNA, riboswitch) GGACUCGGGGUGCCCUUCUGCGUGAAGGCUGAGAAAUACCCGUAUCUCCUGAUCUGGAUAAUGCCAGCGUAGGGAAGUUC
Nature of the test: ITC. Conditions: 100 mM KCl, 10 mM MgCl2; 40 mM Hepes pH 7.5, 303.15 K.

The test system of test [3] is A1nC (RNA, riboswitch) GGACUCGGGGUGCCCUUCUGCGUGAAGGCUGAGAAAUACCCGUAUCACCUGAUCUGGAUAAUGCCAGCGUAGGGCAGUUC
The test can be described thus: ITC. Conditions: 100 mM KCl, 10 mM MgCl2; 40 mM Hepes pH 7.5, 303.15 K; 150 µM TPP titrated into 15 µM RNA.

The test system of test [4] is Natural E. coli TPP riboswitch (RNA, riboswitch) GGACUCGGGGUGCCCUUCUGCGUGAAGGCUGAGAAAUACCCGUAUCACCUGAUCUGGAUAAUGCCAGCGUAGGGAAGUUC
Nature of the test: native gel electrophoresis (mobility increase). To be noted: 1 mM Mg2+; 25 mM Tris, 192 mM glycine pH 8.3; 100 µM TPP.

In test [5] the test system is A1bG (RNA, riboswitch) GGACUCGGGGUGCCCUUCUGCGUGAAGGCUGAGAAAUACCCGUGUCACCUGAUCUGGAUAAUGCCAGCGUAGGGAAGUUC
The test can be described thus: ITC. Conditions: 100 mM KCl, 10 mM MgCl2; 40 mM Hepes pH 7.5, 303.15 K.

Test [6] has as its system Natural E. coli TPP riboswitch (RNA, riboswitch) GGACUCGGGGUGCCCUUCUGCGUGAAGGCUGAGAAAUACCCGUAUCACCUGAUCUGGAUAAUGCCAGCGUAGGGAAGUUC
Nature of the test: ITC. To be noted: 100 mM KCl, 10 mM MgCl2; 40 mM Hepes pH 7.5, 303.15 K.

In test [7] the test system is A2bC (RNA, riboswitch) GGACUCGGGGUGCCCUUCUGCGUGAAGGCUGAGAAAUACCCGUAUCCCCUGAUCUGGAUAAUGCCAGCGUAGGGAAGUUC
The test can be described thus: ITC. Conditions: 100 mM KCl, 10 mM MgCl2; 40 mM Hepes pH 7.5, 303.15 K.

Test [8] concerns ΔUC (RNA, riboswitch) GGACUCGGGGUGCCCUUCUGCGUGAAGGCUGAGAAAUACCCGUAACCUGAUCUGGAUAAUGCCAGCGUAGGGAAGUUC
The test can be described thus: ITC. To be noted: 100 mM KCl, 10 mM MgCl2; 40 mM Hepes pH 7.5, 303.15 K.

The subject of test [9] is A1nU (RNA, riboswitch) GGACUCGGGGUGCCCUUCUGCGUGAAGGCUGAGAAAUACCCGUAUCACCUGAUCUGGAUAAUGCCAGCGUAGGGUAGUUC
The test can be described thus: ITC. To be noted: 100 mM KCl, 10 mM MgCl2; 40 mM Hepes pH 7.5, 303.15 K.

The structures appear in SMILES notation.

What is called Kd is the equilibrium constant for the complex coming apart. The low end stands for tighter binding, the high end for weaker binding. As for `Cc1ncc(C[n+]2csc(CCOP(=O)(O)OP(=O)(O)O)c2C)c(N)n1`, the binding result in test [1] is “no”; in [3] it was “no”; in test [4], “yes”. Moreover, the Kd in test [2] worked out at 550 ± 40 nM; in test [5], 2440 ± 230 nM; in test [6] it was 230 ± 20 nM; in [7], 850 ± 110 nM; in test [8], 280 ± 40 nM; in test [9], 4070 ± 730 nM.
